The text below walks through data of ChEMBL document CHEMBL4400538, “Discovery of Carboline Derivatives as Potent Antifungal Agents for the Treatment of Cryptococcal Meningitis” (J Med Chem, 2019).

Assay [1] concerns Cryptococcus neoformans. Description: Antibiofilm activity against Cryptococcus neoformans H99 assessed as inhibition of cellular surface hydrophobicity at 10 ug/ml incubated for 24 hrs by water-hydrocarbon two-phase assay. Format: functional, organism-based. The conditions noted are these: var grubii H99.
Assay [2] has as its system Trichophyton rubrum. Description: Antifungal activity against Trichophyton rubrum TIA after 48 hrs by spectrophotometery. The assay is classed as functional.
Assay [3] deals with Cryptococcus gattii. Nature of the assay: Antifungal activity against Cryptococcus gattii ATCC 14116 after 72 hrs by spectrophotometery. The following applies: ATCC 14116, 72 h.
The subject of assay [4] is Cryptococcus neoformans. Description: Inhibition of melanin production in Cryptococcus neoformans H99 at 2.5 ug/ml. Format: functional, organism-based. The conditions noted are these: var grubii H99.
The test system of assay [5] is Cryptococcus neoformans. Description: Antifungal activity against Cryptococcus neoformans H99 after 48 hrs by growth curve assay. Format: functional. The following applies: var grubii H99 .
The test system of assay [6] is Cryptococcus neoformans. Description: Antifungal activity against Cryptococcus neoformans H99 assessed as fragmented nuclei at 4 ug/ml after 24 hrs by TEM analysis. Format: functional, organism-based. The following applies: var grubii H99.
For assay [7], the system named is Cryptococcus neoformans. Nature of the assay: Induction of cell cycle arrest in Cryptococcus neoformans H99 assessed as accumulation at G2 phase at 4 ug/ml after 24 hrs by propidium iodide-staining based FACS analysis (reference value: 3.86%). Format: functional, var grubii H99. A general note: In flow cytometry, cells or beads pass a laser one at a time.
Assay [8] deals with Aspergillus fumigatus. Description: Antifungal activity against Aspergillus fumigatus 7544 after 48 hrs by spectrophotometery. The assay is classed as functional. The conditions noted are these: Aspergillus fumigatus, 7544, 48 h.
The subject of assay [9] is Cryptococcus neoformans. Description: Antifungal activity against Cryptococcus neoformans H99 assessed as cell wall collapse at 4 ug/ml after 24 hrs by TEM analysis. The assay is classed as functional, organism-based. The following applies: var grubii H99.
The test system of assay [10] is Cryptococcus neoformans. Description: Induction of cell cycle arrest in Cryptococcus neoformans H99 assessed as accumulation at G1 phase at 4 ug/ml after 24 hrs by propidium iodide-staining based FACS analysis (reference value: 44.50%). Format: functional, var grubii H99.
Assay [11] has as its system Cryptococcus neoformans. Nature of the assay: Antifungal activity against Cryptococcus neoformans H99 assessed as up-regulation of Cdc25C expression at 2 to 4 ug/ml after 24 hrs by Western blot analysis. The assay is classed as functional, organism-based. The conditions noted are these: var grubii H99. A general note: A western blot detects proteins with antibodies after separation by electrophoresis.

The subject of assay [12] is Cryptococcus neoformans. Nature of the assay: Induction of cell cycle arrest in Cryptococcus neoformans H99 assessed as accumulation at S phase at 4 ug/ml after 24 hrs by propidium iodide-staining based FACS analysis (reference value: 51.64%). Format: functional, var grubii H99.
Assay [13] deals with Candida albicans. Nature of the assay: Antifungal activity against Candida albicans 0304103 after 48 hrs by spectrophotometery. Format: functional. The following applies: Candida albicans, 0304103, 48 h.
For assay [14], the system named is Cryptococcus neoformans. Nature of the assay: Antifungal activity against Cryptococcus neoformans H99 assessed as damaged cell membranes at 4 ug/ml after 24 hrs by TEM analysis. The assay is classed as functional, organism-based. The conditions noted are these: var grubii H99.
In assay [15] the test system is Candida parapsilosis. Description: Antifungal activity against Candida parapsilosis 5008 after 48 hrs by spectrophotometery. The conditions noted are these: Lodderomyces parapsilosis, 5008, 48 h. Format: functional.
Assay [16] concerns Candida albicans. Nature of the assay: Antifungal activity against Candida albicans 7781 after 48 hrs by spectrophotometery. Format: functional. The conditions noted are these: Candida albicans, 7781, 48 h.
The subject of assay [17] is Nannizzia gypsea. Description: Antifungal activity against Microsporum gypseum MZC after 48 hrs by spectrophotometery. Format: functional.
Assay [18] has as its system Cryptococcus neoformans. Nature of the assay: Antifungal activity against Cryptococcus neoformans H99 after 72 hrs by growth curve assay. The assay is classed as functional. The following applies: var grubii H99 .
The subject of assay [19] is Cryptococcus neoformans. Description: Antifungal activity against Cryptococcus neoformans H99 assessed as up-regulation of CDK1 expression at 2 to 4 ug/ml after 24 hrs by Western blot analysis. Format: functional, organism-based. The conditions noted are these: var grubii H99.
For assay [20], the system named is Cryptococcus neoformans. Nature of the assay: Antifungal activity against Cryptococcus neoformans ATCC 34877 after 72 hrs by spectrophotometery. Format: functional. The conditions noted are these: ATCC 34877, 72 h.
In assay [21] the test system is Nakaseomyces glabratus. Description: Antifungal activity against Candida glabrata 8535 after 48 hrs by spectrophotometery. The conditions noted are these: Nakaseomyces glabratus, 8535, 48 h. The assay is classed as functional.
The subject of assay [22] is Cryptococcus neoformans. Nature of the assay: Antifungal activity against Cryptococcus neoformans H99 assessed as up-regulation of cyclin B1 expression at 2 to 4 ug/ml after 24 hrs by Western blot analysis. The assay is classed as functional, organism-based. The conditions noted are these: var grubii H99.
Assay [23] concerns Cryptococcus neoformans. Description: Antifungal activity against Cryptococcus neoformans H99 infected in ICR mouse assessed as reduction in brain fungal load at 20 mg/kg, po administered daily for 5 days. The assay is classed as functional, organism-based. The following applies: var grubii H99.

The MIC80 is an inhibitory concentration at the 80% level, which refers to growth in some studies and to a panel of isolates in others. High values mean lower susceptibility, low ones higher susceptibility.

Values after ≈ are worked out from the molar mass of the structure shown. Active and inactive are the calls of the source. The calls are words filed in the database; no cut-off is given here.

On to `OC(Cn1cncn1)(Cn1cncn1)c1ccc(F)cc1F` [FLUCONAZOLE], for which the result in assay [1], in assay [9], in assay [11], in assay [19] and in assay [22] was inactive. Besides, the MIC80 was 2 µg/mL (≈ 6.53 µM) in assay [2]; 4 µg/mL (≈ 13.1 µM) in [3]; 4 µg/mL (≈ 13.1 µM) in [5]; more than 64 µg/mL in assay [8]; more than 64 µg/mL in assay [13]; 32 µg/mL (≈ 104 µM) in [15]. For the same molecule, the MIC80 in assay [16] was found to be 32 µg/mL (≈ 104 µM); in assay [17] it was 16 µg/mL (≈ 52.2 µM); in assay [18] it was 2 µg/mL (≈ 6.53 µM); in [20], 4 µg/mL (≈ 13.1 µM); in [21], 4 µg/mL (≈ 13.1 µM). In addition, the inhibition result in assay [4] was “inactive”. In addition, the outcome in assay [6], in assay [14] and in assay [23] was Active. Further, the results for the Activity in assay [7], in assay [10] and in assay [12] were 0.96%, 50.86% and 48.17%, respectively.
